From patent US20100285145A1, “GPR 119 MODULATORS” (PFIZER INC, priority 2009, published 2010)

How the values were obtained:
male Wistar rats [1] = experiment: Oral glucose tolerance test (OGTT); format: in vivo; details: rat; for Glucose 0-120 min AUC (percent vehicle response): 30 min before glucose 2 g/kg
Excerpt: All in vivo protocols were approved by the Pfizer's Animal Welfare Committee. Naive male Wistar rats (225-250 g body weight on receipt) were obtained from Harlan Laboratories (Indianapolis, Ind.), were pair housed in hanging plastic caging on Sani-chips sawdust bedding, and fed ad libitum on Purina 5001 chow. The rats were housed under a controlled light cycle (light from 6 am to 6 pm) at controlled temperature and humidity conditions. Rats were acclimated to the facility for at least 1 week prior to study.
Example 17 was formulated in 0.5% methylcellulose. The highest dose (30 mg/kg) was formulated at 6 mg/mL for administration at 5 mL/kg, the required bulk was added to a mortar and ground with a small amount of 0.5% methylcellulose to a smooth paste with a pestle, additional 0.5% methylcellulose was added until the mixture flowed, when it was transferred to a stirred container, the mortar was rinsed several times with remaining quantity of 0.5% methylcellulose and capped to prevent evaporation. The suspension was stirred continuously overnight with a magnetic stir bar prior to study, and the lower doses were diluted from the 6 mg/mL suspension using the appropriate volume of 0.5% methylcellulose. All dosing suspensions were stirred throughout the dosing procedure.
Rats were stratified (n=8/group) to vehicle (0.5% methylcellulose) or one of three dose groups (1, 5, or 30 mg/kg) according to body weight on day-1 to ensure that each group had equal group mean body weight values. The rats were fasted overnight in clean cages overnight (˜15 hours) prior to the oral glucose tolerance test. Body weights were recorded on the morning of the study (post fasting) for dose volume calculation. Blood samples were collected from all rats prior to dosing with vehicle or test compound via oral gavage (5 mL/kg). Thirty minutes later rats were bled and immediately dose with an oral dose of glucose (2 g/kg). The rats were re-bled at 15, 30, 60 and 120 minutes post-glucose load. Blood samples (˜250 μL/time point) were collected into EDTA tubes with aprotinin/DPPIVi (0.6 TIU/2 μL per mL whole blood). Blood tubes were inverted several times immediately following collection and placed on ice, then spun at 14,000 rpm in a refrigerated centrifuge for 5 minutes. Plasma samples were analyzed for glucose levels using a Roche 912 clinical chemistry analyzer, plasma insulin concentrations were determined using the Alpco Ultra-Sensitive Insulin Rat ELISA, and total amide GLP-1 concentrations were determined using MSD ELISA kit.
The results are presented as mean+/−SEM (standard error of the mean) unless otherwise stated. Statistical evaluation of the data is carried out using one-way analysis of variance (ANOVA) with appropriate post-hoc analysis between vehicle and treatment group. Differences compared to vehicle with a p>0.05 were considered statistically significant using Dunnett's T-test.

male Wistar rats [2] = experiment: Intraperitoneal glucose tolerance test (IPGTT); format: in vivo; details: rat, 20 mg/kg in 0.5% methylcellulose, IP glucose administered 30 minutes post dose

Row | SMILES | Insulin 0-60 min AUC (percent vehicle response) (male Wistar rats [1]; 1 mg/kg oral) | Total Amide GLP-1 0-120 min AUC (percent vehicle response) (male Wistar rats [1]; 1 mg/kg oral) | Glucose 0-120 min AUC (percent vehicle response) (male Wistar rats [1]; 1 mg/kg oral) | Insulin 0-60 min AUC (percent vehicle response) (male Wistar rats [1]; 5 mg/kg oral) | Total Amide GLP-1 0-120 min AUC (percent vehicle response) (male Wistar rats [1]; 5 mg/kg oral) | Glucose 0-120 min AUC (percent vehicle response) (male Wistar rats [1]; 5 mg/kg oral) | Insulin 0-60 min AUC (percent vehicle response) (male Wistar rats [1]; 30 mg/kg oral) | Total Amide GLP-1 0-120 min AUC (percent vehicle response) (male Wistar rats [1]; 30 mg/kg oral) | Glucose 0-120 min AUC (percent vehicle response) (male Wistar rats [1]; 30 mg/kg oral) | Insulin AUC (0-60 min) (percent vehicle response) (male Wistar rats [2])
1 | Cc1c(O[C@H]2CCN(C(=O)OC3(C)CC3)C[C@H]2F)ncnc1N1CCc2ncccc21 [Example 17, 1-Methylcyclopropyl (3R,4S)-4-{[6-(2,3-dihydro-1H-pyrrolo[3,2-b]pyridin-1-yl)-5-methylpyrimidin-4-yl]oxy}-3-fluoropiperidine-1-carboxylate] | 90 | 147 | 102 | 142 | +184 percent vehicle response | 95 | 112 | 150 | ++90 percent vehicle response | 
2 | CC(C)OC(=O)N1CCC(Oc2cc(N3CCc4cc(S(C)(=O)=O)ccc43)ncn2)CC1 [Example 3, Isopropyl 4-({6-[5-(methylsulfonyl)-2,3-dihydro-1H-indol-1-yl]pyrimidin-4-yl}oxy)piperidine-1-carboxylate] |  |  |  |  |  |  |  |  |  | 104
